Experimental data taken from US20220387375A1, “TRPV1 ACTIVATION-MODULATING COMPLEX MIXTURES OF CANNABINOIDS AND/OR TERPENES” (GBS Global Biopharma, Inc., priority 2018, published 2022).

Experiments:
TRPM8 = target: T1, TRPM8 (Homo sapiens, UniProt Q7Z2W7); test: Bulk calcium assay (Fluo-4) in HEK cells overexpressing TRPM8; type: cell-based
T1 construct: host or cells: HEK TRex293
Method: HEK TRexTRPV1 were cultured in DMEM, 10% Fetal Bovine Serum, 2 mM Lglutamine, 10 μg/ml Blasticidin (Calbiochem, San Diego Calif.), 400 μg/ml Zeocin (InvivoGen, San Diego Calif.), where indicated transgene expression was induced using 1 μg/ml Tetracycline for 16-24 hrs. Unless otherwise indicated, basal expression of TRPV1 without induction was sufficient for these studies, and comparisons were made to untransfected HEK where needed. HEKTRex293 over-expressing human TRPV2, human TRPA1 and human TRPM8 were obtained from SB Drug Discovery (Glasgow, Scotland) and cultured as described above. The cannabinoids and terpenes were assayed in HEK cells that have been transfected with the TRPV1 ion channel protein. These cells are called HEK293-V1 cells.
(§1) Cells were washed and incubated with 0.2 micromolar Fluo-4 for 30 minutes at 37° C. in a standard modified Ringer's solution of the following composition (in mM): NaCl 145, KCl 2.8, CsCl 10, CaCl2 10, MgCl2 2, glucose 10, Hepes·NaOH 10, pH 7.4, 330 mOsm. Cells were transferred to 96-well plates at 50,000 cells/well and stimulated as indicated. Calcium signals were acquired using a Flexstation 3 (Molecular Devices, Sunnydale, USA). Data was analyzed using SoftMax® Pro 5 (Molecular Devices). Where indicated, nomically calcium-free external conditions were achieved by the preparation of 0 mM CaCl2 Ringer solution containing 1 mM EGTA.
(§2) Calcium responses mediated by TRPA1, TRPM8, TRPV2, and TRPV1 were tested by calcium assay in the cell culture system. Cells were washed and incubated with 0.2 μM fluo-4 acetoxymethyl ester (“Fluo-4”) for 30 minutes at 37° C. in a standard modified Ringer's solution of the following composition (in mM): NaCl 145, KCl 2.8, CsCl 10, CaCl2 10, MgCl2 2, glucose 10, Hepes·NaOH 10, pH 7.4, 330 mOsm. Cells were transferred to 96-well plates at 50,000 cells/well and stimulated with 10 μM myrcene diluted in DMSO. Vehicle (DMSO) was used as a negative control. Vehicle traces were subtracted from the myrcene traces for each cell line.
The potential for different cannabinoids to target specific TRP channels, or to co-target more than one channel type, are of potential therapeutic options for the treatment and management of pain. Comparison of the impacts of a variety of cannabinoid on overexpression systems for TRPV2, TRPM8, and TRPA1 were performed in a side-by-side fashion, under bulk calcium assays where the measurements with each trace representing averaged triplicates of 100,000 cells per sample. As shown in FIGS. 41-43 and summarized in Table 3, there are clear differences in responsiveness between cannabinoids at a single channel type than between channel types to a given cannabinoid.

TRPV1 = target: T2, TRPV1 (Rattus norvegicus, UniProt O35433); test: Bulk calcium assay (Fluo-4) in HEK-TRPV1 overexpressing cells; type: cell-based; conditions: for mean maximal Ca^2+ signal RFU achieved 0-180 s (SD), TRPV1: bulk calcium assay; for calcium fluxes: dosing concentrations of 30-50 μM; for initiation of a calcium flux: single dose 10 μM, 1 mM external Ca2+
T2 construct: FLAG; expressed in transfected cells
T2 sequence (O35433 whole entry): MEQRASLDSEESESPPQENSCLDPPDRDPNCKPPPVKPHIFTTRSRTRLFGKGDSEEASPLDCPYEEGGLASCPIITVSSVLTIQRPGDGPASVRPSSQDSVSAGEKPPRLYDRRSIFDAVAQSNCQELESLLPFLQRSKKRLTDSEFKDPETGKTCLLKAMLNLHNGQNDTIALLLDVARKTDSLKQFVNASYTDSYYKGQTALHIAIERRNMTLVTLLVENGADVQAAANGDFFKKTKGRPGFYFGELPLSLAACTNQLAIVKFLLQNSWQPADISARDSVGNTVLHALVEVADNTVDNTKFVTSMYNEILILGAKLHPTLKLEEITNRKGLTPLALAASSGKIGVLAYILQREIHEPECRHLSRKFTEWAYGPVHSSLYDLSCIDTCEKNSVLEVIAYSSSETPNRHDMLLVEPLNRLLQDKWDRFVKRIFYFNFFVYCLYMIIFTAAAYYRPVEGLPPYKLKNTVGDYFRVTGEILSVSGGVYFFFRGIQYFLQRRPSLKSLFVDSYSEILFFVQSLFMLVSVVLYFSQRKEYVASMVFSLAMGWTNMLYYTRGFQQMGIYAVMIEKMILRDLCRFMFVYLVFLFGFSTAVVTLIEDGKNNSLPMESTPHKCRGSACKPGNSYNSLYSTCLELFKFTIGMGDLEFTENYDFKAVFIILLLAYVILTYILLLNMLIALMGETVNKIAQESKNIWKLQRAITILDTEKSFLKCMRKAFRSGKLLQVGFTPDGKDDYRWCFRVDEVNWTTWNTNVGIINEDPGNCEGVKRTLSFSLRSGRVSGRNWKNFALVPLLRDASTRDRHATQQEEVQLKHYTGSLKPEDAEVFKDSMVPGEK
Method: as §1
The cell culture system described in U.S. patent application Ser. No. 15/986,316 was used to test the TRPV1-mediated calcium response to various terpenes. The HEK293 cell line was stably transfected with the pcDNA6TR (Invitrogen, CA) plasmid (encoding the tetracycline-sensitive TREx repressor protein), and was maintained in DMEM+10% fetal bovine serum (inactivated at 55° C. for 1 h)+2 mM glutamine in humidified 5% CO2 atmosphere at 37° C. Selection pressure on the TRex 293 cells was maintained by continuous culture in 10 μg/ml Blasticidin (Sigma, St Louis, Mo.).
For production of TRex HEK293 cells with inducible expression of TRPV1, parental cells were electroporated with the rat TRPV1 cDNA in the pcDNA4TO vector and clonal cell lines were selected by limiting dilution in the presence of 400 μg/ml zeocin (Invitrogen, CA). TRPV1 expression was induced using 1 μg/ml tetracycline for 16 h at 37° C. Stable lines were screened for inducible protein expression using anti-FLAG Western blot, and inducible expression was confirmed.
Calcium responses mediated by TRPV1 were tested by calcium assay in the cell culture system. Cells were washed and incubated with 0.2 μM fluo-4 acetoxymethyl ester (“Fluo-4”) for 30 minutes at 37° C. in a standard modified Ringer's solution of the following composition (in mM): NaCl 145, KCl2.8, CsCl10, CaCl2 10, MgCl2 2, glucose 10, Hepes·NaOH 10, pH 7.4, 330 mOsm. Cells were transferred to 96-well plates at 50,000 cells/well and stimulated as indicated. The terpenes used were alpha-bisabool, alpha-pinene, myrcene, camphene, linalool, ocimene, humulene, beta-caryophyllene, beta-pinene, limonene, and nerolidol. The terpenes were diluted in DMSO and added to the wells to a final concentration of 10 μM. Vehicle (DMSO) alone was run as a negative control and subtracted from the terpene traces. Calcium signals were acquired using a Flexstation 3 (Molecular Devices, Sunnydale, USA). Data was analyzed using SoftMax® Pro 5 (Molecular Devices).
as §2
As shown in FIGS. 16A-H, a variety of cannabinoids were capable of initiating Ca^2+ fluxes in HEK-TRPV1 overexpressing cells, except for cannabigerol and cannabinol. Comparative responses to a single dose (10 μM concentration) of a variety of cannabinoids were made in the presence of 1 mM external Ca^2+, which are population-based, or bulk Ca^2+, measurements with each trace representing averaged triplicates of 100,000 cells per sample. […] For each of the cannabinoid compounds, dose responses at the population level were performed. […] The lower limit of detectable calcium responses in this system varied from 10-100 nM (CBDV, CBGA) to 1-10 μM.

T1 sequence (Q7Z2W7 whole entry): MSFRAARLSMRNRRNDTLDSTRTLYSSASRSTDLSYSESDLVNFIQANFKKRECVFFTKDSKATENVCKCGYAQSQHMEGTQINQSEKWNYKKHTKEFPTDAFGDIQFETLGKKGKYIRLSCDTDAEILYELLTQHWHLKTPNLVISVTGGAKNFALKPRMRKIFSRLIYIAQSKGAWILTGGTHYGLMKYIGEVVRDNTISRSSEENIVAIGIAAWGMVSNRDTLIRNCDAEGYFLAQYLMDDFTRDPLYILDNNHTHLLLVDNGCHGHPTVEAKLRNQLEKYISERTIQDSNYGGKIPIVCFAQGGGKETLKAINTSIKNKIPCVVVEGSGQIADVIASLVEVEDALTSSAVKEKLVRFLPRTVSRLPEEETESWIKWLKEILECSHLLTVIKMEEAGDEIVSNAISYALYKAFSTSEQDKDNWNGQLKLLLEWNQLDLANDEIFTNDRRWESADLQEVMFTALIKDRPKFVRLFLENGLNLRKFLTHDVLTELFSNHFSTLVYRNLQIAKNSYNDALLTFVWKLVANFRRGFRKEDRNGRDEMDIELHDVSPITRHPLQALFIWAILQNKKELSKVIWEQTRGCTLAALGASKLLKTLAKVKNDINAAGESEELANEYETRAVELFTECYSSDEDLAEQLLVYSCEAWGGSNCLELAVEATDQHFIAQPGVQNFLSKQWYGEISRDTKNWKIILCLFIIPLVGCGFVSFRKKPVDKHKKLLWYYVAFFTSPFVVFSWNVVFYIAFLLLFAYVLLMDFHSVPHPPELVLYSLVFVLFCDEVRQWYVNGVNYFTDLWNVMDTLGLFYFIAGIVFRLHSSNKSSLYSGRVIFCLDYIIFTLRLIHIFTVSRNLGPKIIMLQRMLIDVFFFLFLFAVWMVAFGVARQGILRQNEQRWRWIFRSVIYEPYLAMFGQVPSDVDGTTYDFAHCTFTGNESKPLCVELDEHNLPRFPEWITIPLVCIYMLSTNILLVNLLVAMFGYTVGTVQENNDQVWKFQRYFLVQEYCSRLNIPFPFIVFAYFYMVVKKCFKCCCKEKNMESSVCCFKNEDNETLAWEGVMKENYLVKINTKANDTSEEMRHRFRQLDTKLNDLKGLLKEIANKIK

Structure (SMILES)	mean maximal Ca^2+ signal RFU achieved 0-180 s (SD), TRM8 (TRPM8)	mean maximal Ca^2+ signal RFU achieved 0-180 s (SD), TRPV1 (TRPV1)	calcium fluxes (TRPV1)	initiation of a calcium flux (TRPV1)
CCCCCc1cc(O)c(C/C=C(\C)CCC=C(C)C)c(O)c1 [CBG, Cannabigerol]	2.25 (0.46) RFU	0.41 (0.04) RFU	small calcium fluxes	did not initiate a calcium flux
C=C(C)[C@@H]1CCC(C)=C[C@H]1c1c(O)cc(CCC)cc1O [CBDV, Cannabidivarin]	3.89 (0.05) RFU	6.51 (0.07) RFU		
CCCCCc1cc(O)c2c(c1)OC(C)(C)c1ccc(C)cc1-2 [CBN, Cannabinol]	0.09 (0.01) RFU	0.89 (0.08) RFU	small and transient calcium transient fluxes	did not initiate a calcium flux
C=C(C)[C@@H]1CCC(C)=C[C@H]1c1c(O)cc(CCCCC)cc1O [CBD, Cannabidiol]	1.12 (0.02) RFU	11.88 (0.23) RFU		
